# From patent US7807703B2, “Substituted aryl ketones” (Bayer CropScience AG, priority 2002, dated 2010)
# Assay: log P determination by reversed-phase HPLC (EEC Directive 79/831 Annex V.A8; acidic or neutral mobile phase)
# Format: physicochemical
# Conditions: HPLC reversed-phase C18, 43° C., acidic range: 0.1% aqueous phosphoric acid, acetonitrile (marked a))
# Procedure: The log P values given in the table were determined in accordance with EEC Directive 79/831 Annex V.A8 by HPLC (High Performance Liquid Chromatography) using a reversed-phase column (C 18). Temperature: 43° C.
# (a) Mobile phases for the determination in the acidic range: 0.1% aqueous phosphoric acid, acetonitrile; linear gradient from 10% acetonitrile to 90% acetonitrile—the corresponding measurement results are marked a) in Table 1.
# (b) Mobile phases for the determination in the neutral range: 0.01 molar aqueous phosphate buffer solution, acetonitrile; linear gradient from 10% acetonitrile to 90% acetonitrile—the corresponding measurement results are marked b) in Table 1.
row,Compound,logP
1,CON(Cc1cccnc1)Cc1c(S(C)(=O)=O)ccc(C(=O)C2C(=O)CCCC2=O)c1Cl [Example 216],(I-2) logP = 1.47^a)

# Same assay, conditions: HPLC reversed-phase C18, 43° C.; acidic range: 0.1% aqueous phosphoric acid, acetonitrile gradient (marked a))
row,Compound,logP
1,CCn1ncc(C(=O)c2ccc(Cl)c(OCCNS(=O)(=O)C(F)(F)F)c2Cl)c1O [Example 10],logP = 2.72^a)
2,CS(=O)(=O)NCCOc1c(S(C)(=O)=O)ccc(C(=O)C2C(=O)CCCC2=O)c1Cl [Example 14],logP = 1.76^a)
3,CCn1ncc(C(=O)c2ccc(Cl)c(OCCNS(=O)(=O)c3cccs3)c2Cl)c1O [Example 34],(I-2) logP = 2.41^a)
4,CS(=O)(=O)NCCOc1c(Br)ccc(C(=O)C2C(=O)CCCC2=O)c1Br [Example 18],logP = 2.23^a)
5,O=C1CCCC(=O)C1C(=O)c1ccc(Cl)c(OCCNS(=O)(=O)C(F)(F)F)c1Cl [Example 9],logP = 3.25^a)
6,CCCS(=O)(=O)NCCOc1c(Cl)ccc(C(=O)C2C(=O)CCCC2=O)c1Cl [Example 168],logP = 2.67^a)
7,CCn1ncc(C(=O)c2ccc(Cl)c(CNOC)c2Cl)c1O [Example 130],logP = 1.68^a)
8,CCn1ncc(C(=O)c2ccc(S(C)(=O)=O)c(OCCNS(C)(=O)=O)c2Cl)c1O [Example 13],logP = 1.23^a)
9,C=CCN(Cc1c(S(C)(=O)=O)ccc(C(=O)c2cnn(CC)c2O)c1Cl)OC [Example 157],(I-2) logP = 2.29^a)

# Same assay, conditions: HPLC reversed-phase C18, 43° C.; no a)/b) mark printed, mobile phase not given
row,Compound,logP
1,"CON(C)Cc1c(Cl)ccc(C(=O)C2C(=O)CCCC2=O)c1Cl [Example 1, 2-[2,4-dichloro-3-(N-methoxy-N-methylaminomethyl)benzoyl]-1,3-cyclohexanedione]",logP = 3.04

# Same assay, conditions: HPLC, reversed-phase C18, 43° C.; acidic range a): 0.1% aqueous phosphoric acid, acetonitrile, linear gradient 10% to 90% acetonitrile
row,Compound,logP
1,COCCON(C)Cc1c(S(C)(=O)=O)ccc(C(=O)C2C(=O)CCC(C)(C)C2=O)c1Cl (stereo not drawn) [Example 432],(I-2) logP = 3.22^a)
2,CCONCc1c(Cl)ccc(C(=O)c2cnn(C)c2O)c1Cl [Example 450],logP = 1.67^a)
3,CCS(=O)(=O)NCCOc1c(Cl)ccc(C(=O)C2C(=O)CCCC2=O)c1C [Example 359],logP = 2.33^a)
4,Cc1c(C(=O)c2cnn(C)c2O)ccc(Br)c1OCCNS(C)(=O)=O [Example 366],logP = 1.56^a)
5,CS(=O)(=O)c1ccc(C(=O)C2C(=O)CCCC2=O)c(Cl)c1CNOCCOc1ccccc1 [Example 442],(I-2) logP = 3.07^a)
6,CON(Cc1c(S(C)(=O)=O)ccc(C(=O)C2C(=O)CCCC2=O)c1Cl)C1CCCOC1 (stereo not drawn) [Example 411],(I-2) logP = 2.74^a)
7,CCn1ncc(C(=O)c2ccc(S(C)(=O)=O)c(CN(C)OCCOC)c2Cl)c1O [Example 431],(I-2) logP = 1.80^a)
8,CN(Cc1c(S(C)(=O)=O)ccc(C(=O)C2C(=O)CCC(C)(C)C2=O)c1Cl)OCC1CCOC1 (stereo not drawn) [Example 436],(I-2) logP = 3.49^a)
9,CN(Cc1c(S(C)(=O)=O)ccc(C(=O)c2cnn(C)c2O)c1Cl)OCC1CCOC1 (stereo not drawn) [Example 437],(I-2) logP = 1.73^a)
10,C=CCN(Cc1c(S(C)(=O)=O)ccc(C(=O)c2cnn(CC)c2O)c1Cl)S(C)(=O)=O [Example 461],logP = 1.63^a)
11,CCn1ncc(C(=O)c2ccc(S(C)(=O)=O)c(CN(OC)C(C)C)c2Cl)c1O [Example 370],logP = 2.52^a)
12,CCN(Cc1c(Cl)ccc(C(=O)c2cnn(CC)c2O)c1OC)OC [Example 485],logP = 2.97^a)
13,CCN(Cc1c(S(C)(=O)=O)ccc(C(=O)C2C(=O)CCC(C)(C)C2=O)c1Cl)OC(C)C (stereo not drawn) [Example 403],(I-2) logP = 4.36^a)
14,COCCON(C)Cc1c(S(C)(=O)=O)ccc(C(=O)C2C(=O)CCCC2=O)c1Cl [Example 429],(I-2) logP = 2.43^a)
15,CCn1ncc(C(=O)c2ccc(Cl)c(CN(C)S(C)(=O)=O)c2OC)c1O [Example 470],logP = 1.86^a)
16,COc1c(C(=O)c2cnn(C)c2O)ccc(Cl)c1CN(C)OC [Example 478],logP = 1.90^a)
17,CC(C)ON(Cc1c(S(C)(=O)=O)ccc(C(=O)C2C(=O)CCCC2=O)c1Cl)C(C)C [Example 420],logP = 3.99^a)
18,CON(CC(=O)N(C)C)Cc1c(S(C)(=O)=O)ccc(C(=O)C2C(=O)CCC(C)(C)C2=O)c1Cl (stereo not drawn) [Example 419],(I-2) logP = 2.58^a)

row,Compound,logP
1,CCn1ncc(C(=O)c2ccc(S(C)(=O)=O)c(CN(C)OCC3CCOC3)c2Cl)c1O (stereo not drawn) [Example 435],(I-2) logP = 2.03^a)
2,CCONCc1c(Cl)ccc(C(=O)c2cnn(CC)c2O)c1OC [Example 448],logP = 3.60^a)
3,CCON(CC)Cc1c(S(C)(=O)=O)ccc(C(=O)C2C(=O)CCCC2=O)c1Cl [Example 390],logP = 3.22^a)
4,CCn1ncc(C(=O)c2ccc(S(C)(=O)=O)c(CN(Cc3ccoc3)OC)c2Cl)c1O [Example 441],(I-2) logP = 2.39^a)
5,CCN(Cc1c(S(C)(=O)=O)ccc(C(=O)c2c(C)nn(C)c2O)c1Cl)OC [Example 407],(I-2) logP = 1.76^a)
6,CCS(=O)(=O)NCCOc1c(Br)ccc(C(=O)C2C(=O)CCCC2=O)c1C [Example 364],logP = 2.41^a)
7,CCn1ncc(C(=O)c2ccc(Cl)c(OCCNS(=O)(=O)CC)c2C)c1O [Example 358],logP = 2.03^a)
8,CCN(Cc1c(S(C)(=O)=O)ccc(C(=O)c2c(C)nn(CC)c2O)c1Cl)OC [Example 406],(I-2) logP = 2.04^a)
9,CC(C)ON(C)Cc1c(S(C)(=O)=O)ccc(C(=O)C2C(=O)CCCC2=O)c1Cl [Example 393],logP = 3.14^a)
10,CON(Cc1ccoc1)Cc1c(S(C)(=O)=O)ccc(C(=O)C2C(=O)CCCC2=O)c1Cl [Example 428],(I-2) logP = 3.10^a)
11,CCONCc1c(Cl)ccc(C(=O)C2C(=O)CCC(C)(C)C2=O)c1Cl (stereo not drawn) [Example 449],(I-2) logP = 3.64^a)
12,CS(=O)(=O)c1ccc(C(=O)C2C(=O)CCCC2=O)c(Cl)c1CN(CC1CCOC1)OC1CCCC1 (stereo not drawn) [Example 426],(I-2) logP = 3.53^a)
13,CCN(Cc1c(Cl)ccc(C(=O)C2C(=O)CCC(C)(C)C2=O)c1OC)OC (stereo not drawn) [Example 484],(I-2) logP = 2.30^a)
14,CCn1ncc(C(=O)c2ccc(S(C)(=O)=O)c(CN(C)OCC3CC3)c2Cl)c1O [Example 445],(I-2) logP = 2.05^a)
15,CCn1ncc(C(=O)c2ccc(S(C)(=O)=O)c(CN(C)OC3CCCC3)c2Cl)c1O [Example 397],(I-2) logP = 2.87^a)
16,CS(=O)(=O)c1ccc(C(=O)C2C(=O)CCCC2=O)c(Cl)c1CNOC1CCCC1 [Example 401],(I-2) logP = 3.07^a)
17,CCON(C)Cc1c(S(C)(=O)=O)ccc(C(=O)c2cnn(CC)c2O)c1Cl [Example 413],logP = 2.09^a)

# Same assay, conditions: HPLC, reversed-phase C 18, 43° C.; acidic range: 0.1% aqueous phosphoric acid, acetonitrile (marked a) or acidic)
row,Compound,log P (acidic)
1,COC(=O)c1ccc(S(C)(=O)=O)c(CN(OC)C(C)C2CC2)c1Cl (stereo not drawn) [VIII-37],logPacidic = 3.58
2,COC(=O)c1ccc(S(C)(=O)=O)c(CN(Cc2ccoc2)OC)c1Cl [VIII-57],logPacidic = 2.91
3,COC(=O)c1ccc(S(C)(=O)=O)c(CN(C)OC(C)C)c1Cl [VIII-45],logPacicic = 2.97
4,COC(=O)c1ccc(S(C)(=O)=O)c(CN(C)OCC2CCCCO2)c1Cl (stereo not drawn) [VIII-65],logPacidic = 2.87
5,CCN(CC)C(=O)CN(Cc1c(S(C)(=O)=O)ccc(C(=O)OC)c1Cl)OC [VIII-36],logPacidic = 2.28
6,COC(=O)c1ccc(S(C)(=O)=O)c(CN(OC)C2CCCOC2)c1Cl (stereo not drawn) [VIII-59],logPacidic = 2.55
7,COC(=O)c1ccc(S(C)(=O)=O)c(CN(CC(=O)N(C)C)OC)c1Cl [VIII-53],logPacidic = 1.74
8,CCS(=O)(=O)NCCOc1c(S(C)(=O)=O)ccc(C(=O)OC)c1Cl [VIII-31],logPacidic = 1.75
9,COC(=O)c1ccc(S(C)(=O)=O)c(CN(C)OCCOc2ccccc2)c1Cl [VIII-63],logPacidic = 3.37
10,CCS(=O)(=O)NCCOc1c(Cl)ccc(C(=O)OC)c1C [VIII-27],logPacidic = 2.37
11,COCCON(C)Cc1c(S(C)(=O)=O)ccc(C(=O)OC)c1Cl [VIII-61],logPacidic = 2.26

# Same assay, conditions: HPLC, reversed-phase C 18, 43° C.; mobile phase range not marked
Compound,log P,"logP (HPLC, mobile phase not marked)"
CCOC(=O)c1ccc(Cl)c(OCCNS(=O)(=O)CC)c1Cl [VIII-15],logP = 2.61,–
CCN(Cc1c(S(C)(=O)=O)ccc(C(=O)c2cnn(C)c2O)c1Cl)OC [Example 310],–,1.84
CCON(CC)Cc1c(S(C)(=O)=O)ccc(C(=O)OC)c1Cl [VIII-12],logP = 3.06,–
CCOC(=O)c1ccc(Cl)c(OCCNS(C)(=O)=O)c1Cl [VIII-14],logP = 2.24,–
CON(Cc1c(S(C)(=O)=O)ccc(C(=O)C2C(=O)CCCC2=O)c1Cl)C(C)C [Example 343],–,(I-2) 3.26
CON(Cc1c(S(C)(=O)=O)ccc(C(=O)c2cnn(C)c2O)c1Cl)C(C)C [Example 345],–,2.16
CCONCc1c(Cl)ccc(C(=O)OC)c1OC [VIII-13],logP = 2.27,–
CCN(Cc1c(S(C)(=O)=O)ccc(C(=O)C2C(=O)CCCC2=O)c1Cl)OC [Example 308],–,(I-2) 2.87
CCOC(=O)c1ccc(Cl)c(OCCNS(=O)(=O)C(C)C)c1Cl [VIII-20],logP = 2.86,–

# Same assay, conditions: reversed-phase C18 HPLC column; HPLC, reversed-phase C 18, 43° C.; acidic range: 0.1% aqueous phosphoric acid, acetonitrile (marked a) or acidic); read-out: log P (acidic)
row,Compound,chromatographic logP
1,COC(=O)c1ccc(S(C)(=O)=O)c(CN(OC)C(C)C)c1Cl [VIII-3],3.13
2,"CON(Cc1c(S(C)(=O)=O)ccc(C(=O)O)c1Cl)C(C)C [II-3, 2-chloro-4-methylsulphonyl-3-(N-methoxy-N-(1-methylethyl)aminomethyl)benzoic acid]",2.09

# Same assay, conditions: reversed-phase C18 HPLC column; HPLC, reversed-phase C 18, 43° C.; mobile phase range not marked; read-out: log P
row,Compound,chromatographic logP
1,"CON(C)Cc1c(Cl)ccc(C(=O)C2C(=O)CCCC2=O)c1Cl [Example 1, 2-[2,4-dichloro-3-(N-methoxy-N-methylaminomethyl)benzoyl]-1,3-cyclohexanedione]",3.04
